Results on 2 molecules are retold here after patent US20060069132A1, “Azolecarboxamide herbicides” (priority 2004, published 2006).

Molecules are shown by their SMILES.

Experiment [1] concerns barnyardgrass (ECHCG). Nature of the experiment: Test J Compounds 2 and 6 alone and in combination with other herbicides, foliage spray. In kind it is in vivo, Echinochloa crus-galli. Further details: key to ECHCG Obsd.: percentage herbicidal effect (observed). The settings on record: for ECHCG Obsd.: applied alone. An excerpt: Colby's Equation was used to calculate the expected additive herbicidal effect of the mixtures of Compound 6 with Harmony® Extra (i.e. a 2:1 mixture by weight of thifensulfuron-methyl and tribenuron-methyl). Colby's Equation (Colby, S. R. “Calculating Synergistic and Antagonistic Responses of Herbicide Combinations,” Weeds, 15(1), pp 20-22 (1967)) calculates the expected additive effect of herbicidal mixtures, and for two active ingredients is of the form: Pa+b=Pa+Pb−(PaPb/100) wherein • Pa+b is the percentage effect of the mixture expected from additive contribution of the individual components, • Pa is the observed percentage effect of the first active ingredient at the same use rate as in the mixture, and • Pb is the observed percentage effect of the second active ingredient at the same use rate as in the mixture.
Seeds of test plants consisting of barnyardgrass (ECHCG; Echinochloa crus-galli (L.) Beauv.), blackgrass (ALOMY; Alopecurus myosuroides Huds.), Surinam grass (BRADC; Urochloa decumbens (Staph) R. D. Webster, previously named Brachiaria decumbens Stapf), cocklebur (XANST, Xanthium strumarium L.), corn (ZEAMD, Zea mays L. cv. ‘Pioneer 33G26’), large crabgrass (DIGSA, Digitaria sanguinalis (L.) Scop.), giant foxtail (SETFA, Setaria faberi Herrm.), lambsquarters (CHEAL, Chenopodium album L.), morningglory (IPOCO, Ipomoea coccinea L.), pigweed (AMARE, Amaranthus retroflexus L.), velvetleaf (ABUTH, Abutilon theophrasti Medik.) wheat (TRZAS, Triticum aestivum L. cv. ‘Recital’) and wild oat (AVEFA, Avena fatua L.) were planted in Redi-Earth® planting medium (Scotts Company, 14111 Scottslawn Road, Marysville, Ohio 43041) comprising spaghnum peat moss and vermiculite. Seeds of small-seeded species were planted about 1 cm deep; larger seeds were planted about 2.5 cm deep. Plants were grown in a greenhouse using supplemental lighting to maintain a photoperiod of about 14 hours; daytime and nighttime temperatures were about 24-30° C. and 22-25° C., respectively. […] Also listed in Table J are the expected effects for the mixtures calculated using Colby's Equation.

The subject of experiment [2] is blackgrass. Nature of the experiment: Test F pre-/postemergence herbicide test. In kind it is in vivo, Alopecurus myosuroides. The text has this:
(§1) Seeds of plant species selected from annual blugrass (Poa annua L.), blackgrass (Alopecurus myosuroides Huds.), catchweed bedstraw (Gallium aparine L.), common chickweed (Stellaria media (L.) Vill./Cyr.), downy bromegrass (Bromus tectorum L.), green foxtail (Setaria viridis (L.) Beauv.), Italian ryegrass (Lolium multiflorum Lam.), kochia (Kochia scoparia (L.). Schrad.), lambsquarters (Chenopodium album L.), littleseed canarygrass (Phalaris minor Retz.), pigweed (Amaranthus retroflexus L.), Russian thistle (Salsola kali L. ssp. Ruthenica (Iljin) Soo), wild buckwheat (Polygonum convolvulus L.), wild mustard (Sinapis arvensis L.), wild oat (Avena fatua L.), windgrass (Apera spica-venti (L.) Beauv.), winter barley (Hordeum vulgare L.), and wheat (Triticum aestivum L.) were planted and treated preemergence with test chemicals formulated in a non-phytotoxic solvent mixture which included a surfactant.
(§2) At the same time, plants selected from these crop and weed species were treated with postemergence applications of some of the test chemicals formulated in the same manner. Plants ranged in height from 2 to 18 cm (1- to 4-leaf stage) for postemergence treatments. Treated plants and controls were maintained in a greenhouse for 12 to 14 days, after which time all species were compared to controls and visually evaluated. Plant response ratings, summarized in Table F, are based on a scale of 0 to 100 where 0 is no effect and 100 is complete control. A dash (-) response means no test result.

Experiment [3] has as its system downy bromegrass. The experiment is described as follows: Test F pre-/postemergence herbicide test. In kind it is in vivo, Bromus tectorum.
Text: as §1, §2

The test system of experiment [4] is kochia. Nature of the experiment: Test F pre-/postemergence herbicide test. It counts as in vivo, Kochia scoparia.
Text: as §1, §2

Experiment [5] relates to littleseed canarygrass. Nature of the experiment: Test F pre-/postemergence herbicide test. It counts as in vivo, Phalaris minor.
Text: as §1, §2

Experiment [6] concerns pigweed. Nature of the experiment: Test F pre-/postemergence herbicide test. In kind it is in vivo, Amaranthus retroflexus.
Text: as §1, §2

For the molecule `CCn1nc(C(C)(C)C)cc1C(=O)Nc1cc(C(=O)N(C)C)ccc1F` [Compound 6, N-[5-[(dimethylamino)carbonyl]-2-fluorophenyl]-3-(1,1-dimethylethyl)-1-ethyl-1H-pyrazole-5-carboxamide], the “ECHCG Obsd.” value amounted to 17 in experiment [1] (62 g a.i./ha) and 63 in experiment [1] (125 g a.i./ha). For the same molecule, the “observed effect of mixture compared with additive effect expected from Colby's Equation” value in experiment [1] (mixture with terbacil, barnyardgrass, foliage spray, 15 days after treatment) is reported as “greater than additive”.
For the molecule `CCn1nc(C(C)(C)C)cc1C(=O)Nc1cc(C(=O)OC(C)C)c(F)cc1F` [Compound 248], the “Plant response rating (0-100), Blackgrass” value is on record as 45 in experiment [2] (Postemergence, 31 g ai/ha); 50 in experiment [2] (Postemergence, 62 g ai/ha); 60 in experiment [2] (Postemergence, 125 g ai/ha); 60 in experiment [2] (Postemergence, 250 g ai/ha); 50 in experiment [2] (Preemergence, 31 g ai/ha); 50 in experiment [2] (Preemergence, 62 g ai/ha). Moreover, the “Plant response rating (0-100), Blackgrass” value in experiment [2] (Preemergence, 125 g ai/ha) came to 65; in experiment [2] (Preemergence, 250 g ai/ha), 65. Besides, the “Plant response rating (0-100), Bromegrass, Downy” value in experiment [3] (Postemergence, 31 g ai/ha) is 40; in experiment [3] (Postemergence, 62 g ai/ha), 40; in experiment [3] (Postemergence, 125 g ai/ha), 40; in experiment [3] (Postemergence, 250 g ai/ha), 40; in experiment [3] (Preemergence, 31 g ai/ha) it was 35; in experiment [3] (Preemergence, 62 g ai/ha) it was 45. For the same molecule, the “Plant response rating (0-100), Bromegrass, Downy” value was 50 in experiment [3] (Preemergence, 125 g ai/ha) and 65 in experiment [3] (Preemergence, 250 g ai/ha). Moreover, the “Plant response rating (0-100), Kochia” value in experiment [4] (Postemergence, 31 g ai/ha) is reported as 60; in experiment [4] (Postemergence, 62 g ai/ha), 60; in experiment [4] (Postemergence, 125 g ai/ha), 65; in experiment [4] (Postemergence, 250 g ai/ha), 65; in experiment [4] (Preemergence, 31 g ai/ha), 50; in experiment [4] (Preemergence, 62 g ai/ha) it was 60. In addition, the “Plant response rating (0-100), Kochia” value in experiment [4] (Preemergence, 125 g ai/ha) came out at 65; in experiment [4] (Preemergence, 250 g ai/ha) it was 100. The “Plant response rating (0-100), Canarygrass” value in experiment [5] (Postemergence, 31 g ai/ha) came out at 35; in experiment [5] (Postemergence, 62 g ai/ha), 40; in experiment [5] (Postemergence, 125 g ai/ha), 40; in experiment [5] (Postemergence, 250 g ai/ha), 45; in experiment [5] (Preemergence, 31 g ai/ha), 40; in experiment [5] (Preemergence, 62 g ai/ha), 45. In addition, the “Plant response rating (0-100), Canarygrass” value in experiment [5] (Preemergence, 250 g ai/ha) is given as 75. Further, the “Plant response rating (0-100), Pigweed” value in experiment [6] (Postemergence, 31 g ai/ha) is on record as 65; in experiment [6] (Postemergence, 62 g ai/ha), 65; in experiment [6] (Postemergence, 125 g ai/ha), 70; in experiment [6] (Postemergence, 250 g ai/ha) it was 70; in experiment [6] (Preemergence, 31 g ai/ha), 70; in experiment [6] (Preemergence, 62 g ai/ha), 75. In addition, the “Plant response rating (0-100), Pigweed” value stood at 95 in experiment [6] (Preemergence, 125 g ai/ha) and 95 in experiment [6] (Preemergence, 250 g ai/ha).
